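Assay format: 96-well plates, 48-hour exposure. GI50 marks 50% less growth. The concentration for full growth arrest is given as TGI.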
Columns and labels:
Test in all cases: NCI-60 cell line screen, 48 h
[1] = test system: 786-0 renal
[2] = test system: A498 renal
[3] = test system: A549 NSCLC
[4] = test system: ACHN renal
[5] = test system: BT-549 breast
[6] = test system: CAKI-1 renal
[7] = test system: CCRF-CEM leukemia
[8] = test system: COLO 205 colon
[9] = test system: DU-145 prostate
[10] = test system: EKVX NSCLC
[11] = test system: HCC-2998 colon
[12] = test system: HCT-116 colon
[13] = test system: HCT-15 colon
[14] = test system: HL-60(TB) leukemia
[15] = test system: HOP-62 NSCLC
[16] = test system: HOP-92 NSCLC
[17] = test system: HT29 colon
[18] = test system: IGROV1 ovarian
[19] = test system: K-562 leukemia
[20] = test system: KM12 colon
[21] = test system: LOX IMVI melanoma
[22] = test system: M14 melanoma
[23] = test system: MALME-3M melanoma
[24] = test system: MCF7 breast
[25] = test system: MDA-MB-231 breast
[26] = test system: MDA-MB-435
[27] = test system: MDA-MB-468 breast
[28] = test system: MOLT-4 leukemia
[29] = test system: NCI-H226 lung
[30] = test system: NCI-H23 lung
[31] = test system: NCI-H460 lung
[32] = test system: NCI/ADR-RES ovarian
[33] = test system: OVCAR-3 ovarian
[34] = test system: OVCAR-4 ovarian
[35] = test system: OVCAR-5 ovarian
[36] = test system: OVCAR-8 ovarian
[37] = test system: PC-3 prostate
[38] = test system: RPMI-8226 leukemia
[39] = test system: RXF 393 renal
[40] = test system: SF-268 CNS
[41] = test system: SF-295 CNS
[42] = test system: SF-539 CNS
[43] = test system: SK-MEL-2 melanoma
[44] = test system: SK-MEL-28 melanoma
[45] = test system: SK-MEL-5 melanoma
[46] = test system: SK-OV-3 ovarian
[47] = test system: SN12C renal
[48] = test system: SNB-19 CNS
[49] = test system: SNB-75 CNS
[50] = test system: SR leukemia
[51] = test system: SW-620 colon
[52] = test system: T-47D breast
[53] = test system: TK-10 renal
[54] = test system: U251 CNS
[55] = test system: UACC-257 melanoma
[56] = test system: UACC-62 melanoma
[57] = test system: UO-31 renal

COc1cc2c(cc1OC)/C(=C\c1sc(Nc3ccc(O)cc3)nc1O)C(C(=O)O)=N2
GI50 [1]: 0.513 µM
TGI [1]: 45.1 µM
GI50 [2]: 32.1 µM
TGI [2]: > 100 µM
GI50 [3]: 21.6 µM
TGI [3]: > 100 µM
GI50 [4]: 6.53 µM
TGI [4]: > 100 µM
GI50 [5]: 0.654 µM
TGI [5]: 75 µM
GI50 [6]: 95.5 µM
TGI [6]: > 100 µM
GI50 [7]: 0.413 µM
TGI [7]: > 100 µM
GI50 [8]: 1.44 µM
TGI [8]: 9.07 µM
GI50 [9]: 0.588 µM
TGI [9]: 33.3 µM
GI50 [10]: 11.2 µM
TGI [10]: > 100 µM
GI50 [11]: 0.631 µM
TGI [11]: > 100 µM
GI50 [12]: 0.489 µM
TGI [12]: > 100 µM
GI50 [13]: 0.783 µM
TGI [13]: > 100 µM
GI50 [14]: 0.291 µM
TGI [14]: 0.986 µM
GI50 [15]: 0.62 µM
TGI [15]: 59.1 µM
GI50 [16]: 5.89 µM
TGI [16]: 91.6 µM
GI50 [17]: 2.83 µM
TGI [17]: 26 µM
GI50 [18]: 2.7 µM
TGI [18]: > 100 µM
GI50 [19]: 0.369 µM
TGI [19]: > 100 µM
GI50 [20]: 0.557 µM
TGI [20]: > 100 µM
GI50 [21]: 0.501 µM
TGI [21]: > 100 µM
GI50 [22]: 0.376 µM
TGI [22]: 30 µM
GI50 [23]: 0.336 µM
TGI [23]: > 100 µM
GI50 [24]: 0.394 µM
TGI [24]: > 100 µM
GI50 [25]: 1.32 µM
TGI [25]: 63.3 µM
GI50 [26]: 0.187 µM
TGI [26]: 0.389 µM
GI50 [27]: 1.12 µM
TGI [27]: 5.29 µM
GI50 [28]: 0.446 µM
TGI [28]: > 100 µM
GI50 [29]: 16.6 µM
TGI [29]: > 100 µM
GI50 [30]: 0.815 µM
TGI [30]: 41.8 µM
GI50 [31]: 0.954 µM
TGI [31]: > 100 µM
GI50 [32]: > 100 µM
TGI [32]: > 100 µM
GI50 [33]: 0.287 µM
TGI [33]: 0.797 µM
GI50 [34]: 4.57 µM
TGI [34]: > 100 µM
GI50 [35]: 4.51 µM
TGI [35]: > 100 µM
GI50 [36]: 0.775 µM
TGI [36]: > 100 µM
GI50 [37]: 0.666 µM
TGI [37]: > 100 µM
GI50 [38]: 5.17 µM
TGI [38]: > 100 µM
GI50 [39]: 0.527 µM
TGI [39]: 3.21 µM
GI50 [40]: 0.581 µM
TGI [40]: > 100 µM
GI50 [41]: 0.498 µM
TGI [41]: 14.1 µM
GI50 [42]: 0.456 µM
TGI [42]: 2.76 µM
GI50 [43]: 0.586 µM
TGI [43]: 86.3 µM
GI50 [44]: 0.842 µM
TGI [44]: > 100 µM
GI50 [45]: 0.51 µM
TGI [45]: 28.4 µM
GI50 [46]: 0.817 µM
TGI [46]: > 100 µM
GI50 [47]: 2.05 µM
TGI [47]: > 100 µM
GI50 [48]: 0.462 µM
TGI [48]: 27.8 µM
GI50 [49]: 0.217 µM
TGI [49]: 2.95 µM
GI50 [50]: 0.277 µM
TGI [50]: > 100 µM
GI50 [51]: 0.449 µM
TGI [51]: > 100 µM
GI50 [52]: 2.91 µM
TGI [52]: > 100 µM
GI50 [53]: 5.73 µM
TGI [53]: > 100 µM
GI50 [54]: 0.353 µM
TGI [54]: 16.7 µM
GI50 [55]: 1.91 µM
TGI [55]: > 100 µM
GI50 [56]: 0.498 µM
TGI [56]: > 100 µM
GI50 [57]: 4.2 µM
TGI [57]: > 100 µM

Reference: PubChem BioAssay (NCI)
